Measured values reported in patent US20070003480A1, “Liposomal composition comprising haptotactic peptides” (Hapto Biotech, Inc., priority 2002, published 2007).
“Also recorded” adds a separate entry of the source.

Tests used:
[1] = tested on: human fibroblasts (HF); assay: Uptake of FITC-labelled peptides by cells, confocal laser fluorescence microscopy; format: cell-based; conditions: visual score (0-4) from fluorescence micrographs; FITC-labelled ligand 100 μg/ml (40 μM), 1 h, 37° C.
Experimental: Fluorescent microscopy was carried out with Olympus or Nikon fluorescence microscopes. Confocal laser microscopy was done with a computerized Zeiss Confocal Axiomate microscope (LSM410) with multiple excitation wavelengths. Peptides were tagged with fluorescein isothiocyanate (FITC) for visualization. For examination of ^FITCpeptides uptake by human fibroblasts (HF) the cells were grown on glass coverslips to near confluence and then incubated with 100 μg/ml (40 μM) ^FITCpeptides at 37° C. After 1 h, the cells were washed and fixed in 0.5% buffered glutaraldehyde. Coverslips with the cells were placed on a microscope slide with PBS-glycerol 80% with 2% DABCO and examined. The representative fields of cells were visualized by Numarski optics and confocal scans of cell fluorescence intensity in 1 μm slices were recorded at the FITC wavelength (excitation 488 nm, emission 515 nm) and later reconstructed. Uptake of ^FITCligand by HF was scored visually (0-4). The fluorescent haptotactic peptides were clearly seen taken up by the HF cells, and the nuclei remained relatively free of ^FITCHaptide (FIGS. 1A & B). […] By contrast, the uptake of the control ^FITCCα peptide by the cells was negligible.

[2] = tested on: HF; assay: Cell adhesion (haptotaxis) assay, Sepharose bead-bound ligand; format: cell-based, human; conditions: ligand bound to Sepharose beads
Experimental: (§1) The attachment of Sepharose beads (SB)-ligand to cells in nearly confluent cultures grown on plastic was measured as previously described (Gorodetsky R. et al. 1998. J Lab Clin Med 131, 269-280; Gorodetsky R. et al. 1999. J Invest Dermatol 112:866-872). Essentially, about 20-150 μl of suspended (50% v/v) SB-Haptide or SB-fibrinogen were added to near confluent cell cultures in 6-24 well plates and dispersed by gentle shaking for 1 min. The plates were then incubated for up to 4 days. After one day the number of SB tethered to cell layer was counted with an inverted phase or Numarsky microscopy. Typically, ˜300 SB (but not less then 200) were counted in each well, and the ratio of the number of SB attached to the cells in each well, was calculated relative to the total number of SB. At least 3 wells were measured for each variant and each experiment was repeated at least 3 times.

[3] = tested on: BAEC; assay: as above; format: cell-based, bovine; conditions: ligand bound to Sepharose beads
Experimental: as §1

[4] = tested on: Human fibroblasts; assay: Haptide-mediated liposome uptake by human fibroblasts, fluorescence microscopy; format: cell-based; conditions: for liposome uptake into the cytoplasm of fibroblasts: rhodamine-loaded liposomes, FIG. 4
Experimental: (§2) Human fibroblasts or bovine aortic endothelial cells were seeded and grown in CO2 incubator for 24 hours in a 4-chamber cell culture coverslip slide (source) used for microscopy. Then, they were exposed to either free ^FITCHaptide or to a ^FITCHaptotactic Peptide-Liposomal composition. Two liposome types were examined, namely liposomes composed of hydrogenated phosphatidyl serine, PEG and cholesterol, containing the fluorescent dye Rhodamine; and clinical grade liposomes containing the anti-cancer drug doxorubicin (Doxil liposomes). Both rhodamine and doxorubicin are fluorescent compounds. Thus, the liposome penetration and distribution within cells could be tracked by fluorescence microscopy or FACS. Typically, 20 μl of fluorescent Haptotactic Peptide-Liposomal composition were mixed with 180 μl PBS and added to the cell chamber. Incubation was continued for up to 1 hour at 37 or 4° C. The incubation was stopped at different time points by two subsequent washes with PBS, followed by fixation with 500 μl of 4% formaldehyde for 1 hr. The samples were then washed again with PBS. Coverslips with the fixed cells were covered by PBS-glycerol 80%, DABCO 2%, and an additional coverslip for microscopic examination.

[5] = tested on: bovine aortic endothelial cells; assay: Haptide-mediated Doxil liposome uptake by bovine aortic endothelial cells, fluorescence microscopy; format: cell-based; conditions: Doxil (doxorubicin-loaded) liposomes; FIG. 5
Experimental: as §2

[6] = Particle size by dynamic light scattering; format: physicochemical; conditions: Haptide solution 1 mg/mL, 0.45 μm filtered, 25° C., mean of three measurements
Experimental: It has been previously observed by gel filtration that haptides tend to form aggregates (Gorodetsky R, Vexler A, Shamir M, An J, Levdansky L, Shimeliovich I, Marx G. Exp Cell Res. 287:116-129 (2003). A solution of the Haptide preCγ (1 mg/mL) was passed through a 0.45 μm filter and then measured by dynamic light scattering at 25° C. The average particle size (a mean value of three measurements) was ˜145 nm (FIG. 3), showing that such particle is an aggregate of few hundreds of preCγ monomers.
Similarly, Doxil liposomes were measured and observed to have a mean diameter of 80 nm. However, when the preCγ-liposomal composition was formed, the preCγ Haptides aggregates disappeared in correlation with the liposome/Haptide weight ratio (FIG. 3). […] At a doxil/haptide weight ratio of >10^−2, the almost totally all the Haptides aggregates were solubilized within the liposomes as indicated by the disappearance of larger Haptide particles, forming the haptotactic-peptide liposomal composition.

Row | Substance | Cell Uptake (HF) [1] | % Haptotaxis (HF, 1 day) [2] [%] | % Haptotaxis (BAEC, 1 day) [3] [%] | liposome uptake into the cytoplasm of fibroblasts [4] | liposome uptake into endothelial cells [5] | concentration-dependent liposome uptake by human fibroblasts ([4]; Doxorubicin-loaded liposomes, varying Haptide concentration, FIG. 6) | average particle size [6] [nm]
1 | fibrinogen | +2 | 100 | 100 |  |  |  | 
2 | RGADYSLRAVRMKIRPLTVTQ (Equivalent to the c-terminus of fibrinogen alphaE chain) [CαE] | +3 | 60 | 75 | Low induction | efficient in enhancing doxorubicin-liposome (Doxil) uptake |  | 
3 | KGSWYSMRKMSMKIRPFFPQQ (Equivalent to the c-terminus of fibrinogen beta-chain) [Cβ] | +4 | 100 | 100 | facilitated liposome uptake | facilitated liposome uptake | increased liposome uptake; also recorded: directly correlated to the Haptide (Cβ) concentration | 
4 | KTRWYSMKKTTMKIIPFNRL (Equivalent to the c-terminus of fibrinogen pre-gama chain) [preCγ] |  |  |  | facilitated liposome uptake | facilitated liposome uptake |  | ~145
